# Measured values taken from ChEMBL document CHEMBL3217598, “Synthesis, modeling, and crystallographic study of 3,4-disubstituted-1,2,5-oxadiazoles and evaluation of their ability to decrease STAT3 activity” (Medchemcomm, 2010).
# The source made the active and inactive calls. The calls are words filed in the database; no cut-off is given here.
# How the values were obtained:
# [1] = molecular target: Signal transducer and activator of transcription 3 (Homo sapiens) (UniProt P40763); experiment: Inhibition of STAT3 in human HCT 116 cells co-transfected with pSTAT3-TA-Luc at 2 uM after 24 hrs by dual luciferase assay; assay type: cell-based
# Signal transducer and activator of transcription 3 (Homo sapiens), sequence (P40763 whole entry): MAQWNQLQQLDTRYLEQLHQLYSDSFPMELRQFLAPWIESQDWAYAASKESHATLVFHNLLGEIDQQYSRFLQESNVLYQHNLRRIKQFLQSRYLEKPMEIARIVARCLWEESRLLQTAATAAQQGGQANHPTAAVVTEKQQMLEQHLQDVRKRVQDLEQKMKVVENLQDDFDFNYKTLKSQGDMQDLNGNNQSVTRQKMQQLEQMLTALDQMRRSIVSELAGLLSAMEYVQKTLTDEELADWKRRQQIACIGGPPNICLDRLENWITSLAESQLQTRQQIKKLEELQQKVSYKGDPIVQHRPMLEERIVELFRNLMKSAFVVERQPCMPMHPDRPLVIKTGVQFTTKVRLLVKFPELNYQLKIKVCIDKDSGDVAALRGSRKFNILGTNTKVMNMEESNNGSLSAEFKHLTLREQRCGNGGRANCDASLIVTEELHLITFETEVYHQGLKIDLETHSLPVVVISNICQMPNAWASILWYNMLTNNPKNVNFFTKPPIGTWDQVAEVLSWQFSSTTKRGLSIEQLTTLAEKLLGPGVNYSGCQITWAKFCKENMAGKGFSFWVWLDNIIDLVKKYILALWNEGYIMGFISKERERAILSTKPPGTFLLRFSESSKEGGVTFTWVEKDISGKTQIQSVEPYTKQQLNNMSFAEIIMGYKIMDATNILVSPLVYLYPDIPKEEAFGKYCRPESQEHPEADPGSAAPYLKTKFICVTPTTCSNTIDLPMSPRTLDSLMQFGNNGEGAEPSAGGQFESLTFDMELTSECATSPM
# [2] = molecular target: Signal transducer and activator of transcription 3 (Homo sapiens) (UniProt P40763); experiment: Inhibition of STAT3 in human HCT 116 cells co-transfected with pSTAT3-TA-Luc after 24 hrs by dual luciferase assay; assay type: cell-based
# HCT-116 [3] = experiment: Growth inhibition of human HCT116 cells assessed as cell proliferation at highest concentration after 24 hrs by WST-1 assay; assay type: functional
# MDA-MB-468 [4] = experiment: Growth inhibition of human MDA-MB-468 cells assessed as cell proliferation at highest concentration after 24 hrs by WST-1 assay; assay type: functional
# MDA-MB-231 [5] = experiment: Growth inhibition of human MDA-MB-231 cells assessed as cell proliferation at highest concentration after 24 hrs by WST-1 assay; assay type: functional
# SW-620 [6] = experiment: Growth inhibition of human SW620 cells assessed as cell proliferation at highest concentration after 24 hrs by WST-1 assay; assay type: functional
# HCT-116 [7] = experiment: Inhibition of human HCT116 cell proliferation at highest concentration after 48 hrs by WST-1 assay; assay type: functional, cell-based
# MDA-MB-468 [8] = experiment: Inhibition of human MDA-MB-468 cell proliferation at highest concentration after 48 hrs by WST-1 assay; assay type: functional, cell-based
# MDA-MB-231 [9] = experiment: Inhibition of human MDA-MB-231 cell proliferation at highest concentration after 48 hrs by WST-1 assay; assay type: functional, cell-based
# SW-620 [10] = experiment: Inhibition of human SW620 cell proliferation at highest concentration after 48 hrs by WST-1 assay; assay type: functional, cell-based
# HCT-116 [11] = experiment: Induction of apoptosis in human HCT116 cells assessed as rounded and floated morphology at 2.5 to 50 uM; assay type: functional, cell-based
# HCT-116 [12] = experiment: Induction of apoptosis in human HCT116 cells assessed as increase in cleaved caspase-3 level at 10 uM by western blot analysis; assay type: functional, cell-based
# HCT-116 [13] = experiment: Induction of apoptosis in human HCT116 cells assessed as increase in cleaved PARP level at 10 uM by western blot analysis; assay type: functional, cell-based
inhibition [1] [%],SMILES,other results
21,CN(C(=O)Nc1nonc1-c1ccc(OCc2ccccc2)cc1)c1ccc(C(F)(F)F)cc1,
11,O=C(NCc1ccccc1)Nc1nonc1-c1ccccc1,
14,O=C(Cc1ccccc1)Nc1nonc1CO,
8,CN(C(=O)N(C)c1nonc1-c1ccc(Cl)cc1)c1ccc(C(F)(F)F)cc1,
7,COC(=O)c1nonc1NS(=O)(=O)Cc1ccccc1,
-7,O=C(Nc1nonc1-c1ccc(Cl)cc1)c1ccc(C(F)(F)F)cc1,
36,O=C(Nc1ccccc1)Nc1nonc1-c1ccccc1,
2,Cc1nonc1NC(=O)Nc1ccccc1,
-2,O=S(=O)(Cc1ccccc1)Nc1nonc1CO,
-3,O=S(=O)(Nc1nonc1-c1ccc(Cl)cc1)c1ccc(C(F)(F)F)cc1,
32,CC(=O)Oc1ccc(-c2nonc2NC(=O)N(C)c2ccc(C(F)(F)F)cc2)cc1,
51,CN(C(=O)Nc1nonc1-c1ccc(O)cc1)c1ccc(C(F)(F)F)cc1,
11,O=C(Cc1ccccc1)Nc1nonc1-c1ccccc1,
6,Cc1nonc1NC(=O)Cc1ccccc1,
6,Cc1nonc1NS(=O)(=O)Cc1ccccc1,
26,CC(=O)Oc1ccc(-c2nonc2N(C)C(=O)N(C)c2ccc(C(F)(F)F)cc2)cc1,
24,O=C(Nc1ccc(C(F)(F)F)cc1)Nc1nonc1-c1ccc(O)cc1,
9,COC(=O)c1nonc1NC(=O)Cc1ccccc1,
25,CN(C(=O)Nc1nonc1-c1ccc(Cl)cc1)c1ccccc1,
45,O=C(Nc1ccc(C(F)(F)F)cc1)Nc1nonc1-c1ccc(Cl)cc1,inhibition [2]: Dose-dependent effect; growth inhibition (GI) (HCT-116 [3]): 50%; growth inhibition (GI) (MDA-MB-468 [4]): 50%; growth inhibition (GI) (MDA-MB-231 [5]): 50%; growth inhibition (GI) (SW-620 [6]): 50%; inhibition (HCT-116 [7]): Active; inhibition (MDA-MB-468 [8]): Active; inhibition (MDA-MB-231 [9]): Active; inhibition (SW-620 [10]): Active; Activity (HCT-116 [11]): Active; Activity (HCT-116 [12]): Active; Activity (HCT-116 [13]): Active
